The target in assay [1] is human M1 receptor (Homo sapiens (Human), UniProt P11229). The assay is described as follows: Radioligand (tritiated N-methylscopolamine) binding assay, M1. As to conditions: CHO cell membranes expressing human M1; 1.5 nM tritiated N-methylscopolamine; 90 min, 37° C.; read-out: Ki against M1 receptor (Table 21, M1). An outline of the steps:
(§1)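 Membranes from CHO cells expressing the receptor were incubated with 1.5 nM radioligand and twelve compound concentrations (10 μM to […]) for 90 min at 37 °C in 50 mM HEPES, 100 mM NaCl, 5 mM MgCl2, 1 mM EDTA, pH 7.4. Bound radioligand was collected by filtration and counted, and Ki was derived from inhibition.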

Assay [2] concerns the target human M3 receptor (Homo sapiens (Human), UniProt P20309). The assay is described as follows: Radioligand (tritiated N-methylscopolamine) binding assay, M3. As to conditions: CHO cell membranes expressing human M3; 1.5 nM tritiated N-methylscopolamine; 90 min, 37° C.; read-out: Ki against M3 receptor (Table 21, M3). The procedure, abridged:
as §1

The target of assay [3] is human M4 receptor (Homo sapiens (Human), UniProt P08173). The assay is described as follows: Radioligand (tritiated N-methylscopolamine) binding assay, M4. To be noted: Ki against the M4 receptor; membranes from CHO cells expressing human M4; tritiated N-methylscopolamine 1.5 nM; read-out: Ki. The procedure, abridged: as §1
For assay [4], the target named is human M2 receptor (Homo sapiens (Human), UniProt P08172). As to the kind of experiment: Radioligand (tritiated N-methylscopolamine) binding assay, M2. As to conditions: CHO cell membranes expressing human M2; 1.5 nM tritiated N-methylscopolamine; 90 min, 37° C.; read-out: Ki against M2 receptor (Table 21, M2). An outline of the steps:
as §1

In assay [5] the target is human M5 receptor (Homo sapiens (Human), UniProt P08912). As to the kind of experiment: Radioligand (tritiated N-methylscopolamine) binding assay, M5. To be noted: CHO cell membranes expressing human M5; 1.5 nM tritiated N-methylscopolamine; 90 min, 37° C.; read-out: Ki against M5 receptor (Table 21, M5). The procedure, abridged:
as §1

The record followed here is patent publication US11033539B2, “Compounds of formulas (VII), (VIII), (IX), (XI), (XII), (XIII), and (XIV) as muscarinic receptor 4(M4) antagonists for treating neurological diseases” (Neurocrine Biosciences, Inc., priority 2015, dated 2021).

Structures are written as SMILES.

Chain of human M2 receptor (P08172 whole entry): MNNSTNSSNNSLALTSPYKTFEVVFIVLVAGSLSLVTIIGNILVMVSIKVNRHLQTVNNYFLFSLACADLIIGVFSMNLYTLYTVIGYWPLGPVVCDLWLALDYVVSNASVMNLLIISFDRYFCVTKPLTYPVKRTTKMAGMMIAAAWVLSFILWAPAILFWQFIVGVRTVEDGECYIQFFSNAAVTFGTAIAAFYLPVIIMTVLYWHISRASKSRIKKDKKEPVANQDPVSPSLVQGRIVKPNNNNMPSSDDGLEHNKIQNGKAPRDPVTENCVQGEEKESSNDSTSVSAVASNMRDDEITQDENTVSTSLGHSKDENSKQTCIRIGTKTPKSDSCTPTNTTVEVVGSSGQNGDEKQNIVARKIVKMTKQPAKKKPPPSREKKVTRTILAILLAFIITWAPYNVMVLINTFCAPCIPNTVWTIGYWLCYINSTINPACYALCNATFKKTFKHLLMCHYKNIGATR
Chain of human M5 receptor (P08912 whole entry): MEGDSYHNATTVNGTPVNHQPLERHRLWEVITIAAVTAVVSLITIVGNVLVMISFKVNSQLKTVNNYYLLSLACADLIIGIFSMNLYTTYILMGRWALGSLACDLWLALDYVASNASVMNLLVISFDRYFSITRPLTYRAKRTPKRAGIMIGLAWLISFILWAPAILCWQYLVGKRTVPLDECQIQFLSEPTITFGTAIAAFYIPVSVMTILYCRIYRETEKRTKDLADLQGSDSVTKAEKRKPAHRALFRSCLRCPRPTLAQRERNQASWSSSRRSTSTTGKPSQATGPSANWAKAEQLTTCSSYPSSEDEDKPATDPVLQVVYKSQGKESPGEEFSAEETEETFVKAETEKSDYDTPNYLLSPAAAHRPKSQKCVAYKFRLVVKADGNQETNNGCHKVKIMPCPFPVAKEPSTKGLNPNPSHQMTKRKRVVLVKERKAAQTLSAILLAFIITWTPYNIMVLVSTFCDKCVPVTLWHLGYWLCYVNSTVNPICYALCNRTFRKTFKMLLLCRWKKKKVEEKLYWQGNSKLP
Chain of human M4 receptor (P08173 whole entry): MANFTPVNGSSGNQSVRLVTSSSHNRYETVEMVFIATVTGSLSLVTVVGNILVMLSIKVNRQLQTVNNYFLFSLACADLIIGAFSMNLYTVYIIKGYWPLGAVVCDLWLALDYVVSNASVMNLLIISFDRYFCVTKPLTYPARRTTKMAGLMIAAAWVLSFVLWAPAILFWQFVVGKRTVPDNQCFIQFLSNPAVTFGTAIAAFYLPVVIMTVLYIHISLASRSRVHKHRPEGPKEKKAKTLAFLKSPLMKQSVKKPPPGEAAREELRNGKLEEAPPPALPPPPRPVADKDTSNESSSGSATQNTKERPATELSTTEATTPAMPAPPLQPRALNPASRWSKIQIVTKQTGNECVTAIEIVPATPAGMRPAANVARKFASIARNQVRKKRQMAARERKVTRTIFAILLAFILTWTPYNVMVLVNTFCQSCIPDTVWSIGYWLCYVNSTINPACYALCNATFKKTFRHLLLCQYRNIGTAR
Chain of human M1 receptor (P11229 whole entry): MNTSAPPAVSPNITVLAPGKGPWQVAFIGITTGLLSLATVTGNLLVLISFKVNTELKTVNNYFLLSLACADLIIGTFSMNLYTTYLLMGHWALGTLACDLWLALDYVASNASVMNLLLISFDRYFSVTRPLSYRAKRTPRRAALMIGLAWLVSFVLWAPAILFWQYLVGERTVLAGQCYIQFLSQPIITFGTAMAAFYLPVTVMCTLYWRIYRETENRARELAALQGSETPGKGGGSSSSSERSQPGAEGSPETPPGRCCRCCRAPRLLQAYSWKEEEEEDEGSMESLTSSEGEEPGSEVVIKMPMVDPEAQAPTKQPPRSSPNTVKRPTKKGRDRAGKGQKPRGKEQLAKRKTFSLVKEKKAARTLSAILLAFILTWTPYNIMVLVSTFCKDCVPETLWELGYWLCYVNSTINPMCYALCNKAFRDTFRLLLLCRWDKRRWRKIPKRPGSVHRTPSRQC
Chain of human M3 receptor (P20309 whole entry): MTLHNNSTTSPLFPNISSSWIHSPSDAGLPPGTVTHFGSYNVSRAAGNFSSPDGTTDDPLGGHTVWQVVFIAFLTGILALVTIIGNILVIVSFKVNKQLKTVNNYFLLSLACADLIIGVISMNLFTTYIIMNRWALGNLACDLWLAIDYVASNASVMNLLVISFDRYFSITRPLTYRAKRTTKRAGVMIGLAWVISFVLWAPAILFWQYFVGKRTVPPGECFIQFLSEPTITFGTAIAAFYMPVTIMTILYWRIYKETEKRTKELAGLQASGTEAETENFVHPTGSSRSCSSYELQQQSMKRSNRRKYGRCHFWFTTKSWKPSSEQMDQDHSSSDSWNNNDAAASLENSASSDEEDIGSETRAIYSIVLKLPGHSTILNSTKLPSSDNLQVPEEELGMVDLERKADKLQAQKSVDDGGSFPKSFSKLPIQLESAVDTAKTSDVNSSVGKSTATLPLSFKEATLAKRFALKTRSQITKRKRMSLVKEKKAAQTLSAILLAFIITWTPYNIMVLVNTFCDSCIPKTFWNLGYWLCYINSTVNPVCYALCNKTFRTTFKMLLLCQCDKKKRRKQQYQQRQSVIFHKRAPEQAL

As for `N#Cc1cc(N2CCC(C(=O)NCCC3(O)CCN(Cc4ccccc4)CC3)CC2)ccc1OC(F)(F)F` [10-20, N-[2-(1-benzyl-4-hydroxypiperidin-4-yl)ethyl]-1-[3-cyano-4-(trifluoromethoxy)phenyl]piperidine-4-carboxamide], the Ki in assay [1] is above 1000 nM; in assay [2], above 1000 nM; in assay [3], below 10 nM; in assay [4] it was 100 to 1000 nM; in assay [5] it was above 1000 nM.
Turning to `O=C(NCCC1CCN(Cc2ccccc2)CC1)C1CCN(c2ccc(F)c(F)c2)CC1` [10-21, N-[2-(1-benzylpiperidin-4-yl)ethyl]-1-(3,4-difluorophenyl)piperidine-4-carboxamide], the inhibitory constant (Ki) was above 1000 nM in assay [1]; above 1000 nM in assay [2]; below 10 nM in assay [3]; 100 to 1000 nM in assay [4]; above 1000 nM in assay [5].
As for `O=C(NCCC1CCN(Cc2ccccc2)CC1)C1CCN(c2cc(F)cc(F)c2)CC1` [10-22, N-[2-(1-benzylpiperidin-4-yl)ethyl]-1-(3,5-difluorophenyl)piperidine-4-carboxamide], the Ki in assay [1] was above 1000 nM; in assay [2], above 1000 nM; in assay [3], below 10 nM; in assay [4] it was 100 to 1000 nM; in assay [5] it was above 1000 nM.
`N#Cc1cc(OC(F)(F)F)cc(N2CCC(C(=O)NCCC3CCN(Cc4ccccc4)CC3)CC2)c1` [10-23, N-[2-(1-benzylpiperidin-4-yl)ethyl]-1-[3-cyano-5-(trifluoromethoxy)phenyl]piperidine-4-carboxamide]: the Ki was 100 to 1000 nM in assay [1]; above 1000 nM in assay [2]; below 10 nM in assay [3]; 10 to 100 nM in assay [4]; above 1000 nM in assay [5].
In the case of `COc1cc(C#N)cc(N2CCC(C(=O)NCCC3CCN(Cc4ccccc4)CC3)CC2)c1` [10-54, N-[2-(1-benzylpiperidin-4-yl)ethyl]-1-(3-cyano-5-methoxyphenyl)piperidine-4-carboxamide], the Ki in assay [1] is 100 to 1000 nM; in assay [2], above 1000 nM; in assay [3], below 10 nM; in assay [4] it was 10 to 100 nM; in assay [5], above 1000 nM.
Regarding `Cc1cc(N2CCC(C(=O)NCCC3CCN(Cc4ccccc4)CC3)CC2)ccc1OC(F)(F)F` [10-56, N-[2-(1-benzylpiperidin-4-yl)ethyl]-1-[3-methyl-4-(trifluoromethoxy)phenyl]piperidine-4-carboxamide], the Ki was 100 to 1000 nM in assay [1]; 100 to 1000 nM in assay [2]; below 10 nM in assay [3]; 10 to 100 nM in assay [4]; above 1000 nM in assay [5].
In the case of `N#Cc1cc(N2CCC(C(=O)NCCC3CCN(Cc4ccccc4)CC3)CC2)ccc1OC(F)(F)F` [10-57, N-[2-(1-benzylpiperidin-4-yl)ethyl]-1-[3-cyano-4-(trifluoromethoxy)phenyl]piperidine-4-carboxamide], the inhibitory constant (Ki) in assay [1] was 100 to 1000 nM; in assay [2], above 1000 nM; in assay [3], below 10 nM; in assay [4] it was 10 to 100 nM; in assay [5], above 1000 nM.
With `N#Cc1cc(N2CCC(C(=O)NC[C@@H](O)C3CCN(Cc4ccccc4)CC3)CC2)ccc1F` [10-58, N-[(2S)-2-(1-benzylpiperidin-4-yl)-2-hydroxyethyl]-1-(3-cyano-4-fluorophenyl)piperidine-4-carboxamide], the inhibition constant Ki is above 1000 nM in assay [1]; above 1000 nM in assay [2]; below 10 nM in assay [3]; above 1000 nM in assay [4]; above 1000 nM in assay [5].
For `C[C@H]1CN(c2ccc(C#N)cn2)CCC1C(=O)NCCC1CCN(Cc2ccccc2)CC1` (stereo partly drawn) [10-79, (3R)-N-[2-(1-benzylpiperidin-4-yl)ethyl]-1-(5-cyanopyridin-2-yl)-3-methylpiperidine-4-carboxamide], the Ki was 100 to 1000 nM in assay [1]; above 1000 nM in assay [2]; below 10 nM in assay [3]; 10 to 100 nM in assay [4]; 100 to 1000 nM in assay [5].

By Ki is commonly meant the dissociation constant of the complex between target and ligand, obtained from inhibition or displacement.
